The text below walks through data of patent US11352395B2, “Anticancer peptides” (IDP DISCOVERY PHARMA, S.L., priority 2017, dated 2022).

Experiment [1] concerns RG1, epithelial (glioblastoma, GMB).
Description: Alamar Blue: 10 μl Alamar Blue solution was added to each well and the plates were incubated for 4 in the incubator. Fluorescence ratio at 535/590 (excitation/emission) was measured in Cytofluor (Millipore) fluorimeter. Blank control was determined by lysis of untreated cells with con 2% of Triton X100, right before adding Alamar Blue solution.
The test system of experiment [2] is 12O53, epithelial (glioblastoma, GMB). The format is cell-based, human. From the text: [drawing 12] a L birradical corresponding to -(CH2)3-CH═CH-(CH2)3- (for the case of NS02) or -(CH2)6-CH═CH-(CH2)3- (for the cases NS10, NS16 and Na05) links both Xs radicals in each sequence, and CPP2 corresponds to penetratine peptide. Cell Lines: NCI-H524, lung (small cell lung cancer, SCLC), ATCC-CRL-5831 RG1, epithelial (glioblastoma, GMB), from surgical specimens from patients GMB-27, epithelial (glioblastoma, GMB), from surgical specimens from patients 12O15, epithelial (glioblastoma, GMB), from surgical specimens from patients 12O53, epithelial (glioblastoma, GMB), from surgical specimens from patients 12O89, epithelial (glioblastoma, GMB), from surgical specimens from patients RG6, epithelial (glioblastoma, GMB), from surgical specimens from patients RG4, epithelial (glioblastoma, GMB), from surgical specimens from patients RG5, epithelial (glioblastoma, GMB), from surgical specimens from patients Cell Culture During the amplification step and the assays adherent cells were rinsed with DPBS (Dulbecco's Phosphate Buffered Saline, Sigma D1283) three times and afterward treated for 5 minutes with trypsin ([0.5 g/ml]/EDTA [0.2 g/ml]) (Gibco-BRL, 15400054) in solution of DPBS at 37° C., and, once detached, transferred in the culturing medium. No-adherent cells were dissociated with Accumax, centrifuged and transferred in the culturing medium. Cells were counted in a Neubauer chamber after labelling with Tripan-Blue. […] NCI-H524 were seeded at a density of 2500 cells/well in 96 well plates; […]6, 12015, 12089 and GBM-27 were dissociated with Accumax and plate on p96 wells covered with Matrigel. After 24 h, the compounds to be tested were added to calculate the dose/response curve at the starting concentration of 100 μM with serial dilutions (1:1). Controls are the untreated cells. Each experiment was performed in triplicate. Cells were incubated during 72-96 h in incubator under CO2 atmosphere at 37° C. Cell viability was measured by means of Alamar Blue® (Biosource DAL1100) and […], after treatment with Propidium iodide and Hoechst (GE Healthcare), following manufacturer instructions. Alamar Blue: 10 μl Alamar Blue solution was added to each well and the plates were incubated for […] in the incubator. Fluorescence ratio at 535/590 (excitation/emission) was measured in Cytofluor (Millipore) fluorimeter. Blank control was determined by lysis of untreated cells with con 2% of Triton X100, right before adding Alamar Blue solution. […] of propidium iodide and/or Hoechst solution was added to each well and the plates were incubated for 10 minutes protected by light. Control samples were represented by untreated cells and cell treated with 100% DMSO. Fluorescent stained cells which corresponds to death cells were detected by Cytell Imaging System and their amount calculated. % Viability=Number of non-blue cells×100/Number of total cells Statistics Data analysis was performed calculating the percentage of cell viability normalized vs. the values of negative control, which was considered equal to 100%. The dose/response curve was fitted through the sigmoidal equation dose-response (variable slope) and the EC50 values were calculated as follow: Y=Bottom+(Top-Bottom)/(1+10^{[(Log EC50-X)*HillSlope]}, where: X is compound concentration (log scale) and Y is the response

Experiment [3] relates to NCI-H524, lung (small cell lung cancer, SCLC).
Description: Cell Lines: NCI-H524, lung (small cell lung cancer, SCLC), ATCC-CRL-5831 RG1, epithelial (glioblastoma, GMB), from surgical specimens from patients GMB-27, epithelial (glioblastoma, GMB), from surgical specimens from patients 12O15, epithelial (glioblastoma, GMB), from surgical specimens from patients 12O53, epithelial (glioblastoma, GMB), from surgical specimens from patients 12O89, epithelial (glioblastoma, GMB), from surgical specimens from patients RG6, epithelial (glioblastoma, GMB), from surgical specimens from patients RG4, epithelial (glioblastoma, GMB), from surgical specimens from patients RG5, epithelial (glioblastoma, GMB), from surgical specimens from patients Cell Culture […]
During the amplification step and the assays adherent cells were rinsed with DPBS (Dulbecco's Phosphate Buffered Saline, Sigma D1283) three times and afterward treated for 5 minutes with trypsin ([0.5 g/ml]/EDTA [0.2 g/ml]) (Gibco-BRL, 15400054) in solution of DPBS at 37° C., and, once detached, transferred in the culturing medium. […] Cells were counted in a Neubauer chamber after labelling with Tripan-Blue. […]
Cells were incubated during 72-96 h in incubator under CO2 atmosphere at 37° C. Cell viability was measured by means of Alamar Blue® (Biosource DAL1100) and CYTELL™, after treatment with Propidium iodide and Hoechst (GE Healthcare), following manufacturer instructions. […]
Experiment [4] relates to GBM27 (GMB-27), epithelial (glioblastoma). The format is cell-based, human. From the text:
(§1) [drawing 12] a L birradical corresponding to —(CH2)3—CH═CH—(CH2)3— (for the case of NS02) or —(CH2)6—CH═CH—(CH2)3— (for the cases NS10, NS16 and Na05) links both Xs radicals in each sequence, and CPP2 corresponds to penetratine peptide. Cell Lines: NCI-H524, lung (small cell lung cancer, SCLC), ATCC-CRL-5831 RG1, epithelial (glioblastoma, GMB), from surgical specimens from patients GMB-27, epithelial (glioblastoma, GMB), from surgical specimens from patients 12O15, epithelial (glioblastoma, GMB), from surgical specimens from patients 12O53, epithelial (glioblastoma, GMB), from surgical specimens from patients 12O89, epithelial (glioblastoma, GMB), from surgical specimens from patients RG6, epithelial (glioblastoma, GMB), from surgical specimens from patients RG4, epithelial (glioblastoma, GMB), from surgical specimens from patients RG5, epithelial (glioblastoma, GMB), from surgical specimens from patients Cell Culture
(§2) Cell lines NCI-H524 were cultured in incubator at 37° C. in RPMI-1640 (Sigma R8758) medium with 10% of fetal bovine serum inactivated (FBS) and 2 mM glutamine (Sigma G7513). Cell line RG1, RG4, RG5, RG6, 12015, 12089 and GBM-27 were cultured in incubator under CO2 (6%) at 37° C. in complete medium (Neurobasal+B27+Glutamax+Growth factors).
(§3) During the amplification step and the assays adherent cells were rinsed with DPBS (Dulbecco's Phosphate Buffered Saline, Sigma D1283) three times and afterward treated for 5 minutes with trypsin ([0.5 g/ml]/EDTA [0.2 g/ml]) (Gibco-BRL, 15400054) in solution of DPBS at 37° C., and, once detached, transferred in the culturing medium. No-adherent cells were dissociated with Accumax, centrifuged and transferred in the culturing medium. Cells were counted in a Neubauer chamber after labelling with Tripan-Blue.
(§4) NCI-H524 were seeded at a density of 2500 cells/well in 96 well plates; RG1, RG4, RG5, RG6, 12015, 12089 and GBM-27 were dissociated with Accumax and plate on p96 wells covered with Matrigel. After 24 h, the compounds to be tested were added to calculate the dose/response curve at the starting concentration of 100 μM with serial dilutions (1:1). Controls are the untreated cells. Each experiment was performed in triplicate.
(§5) Cells were incubated during 72-96 h in incubator under CO2 atmosphere at 37° C. Cell viability was measured by means of Alamar Blue® (Biosource DAL1100) and CYTELL™, after treatment with Propidium iodide and Hoechst (GE Healthcare), following manufacturer instructions.
(§6) Alamar Blue: 10 μl Alamar Blue solution was added to each well and the plates were incubated for […] in the incubator. Fluorescence ratio at 535/590 (excitation/emission) was measured in Cytofluor (Millipore) fluorimeter. Blank control was determined by lysis of untreated cells with con 2% of Triton X100, right before adding Alamar Blue solution.
(§7) CYTELL™: 10 μl of propidium iodide and/or Hoechst solution was added to each well and the plates were incubated for 10 minutes protected by light. Control samples were represented by untreated cells and cell treated with 100% DMSO. Fluorescent stained cells which corresponds to death cells were detected by Cytell Imaging System and their amount calculated. % Viability=Number of non-blue cells×100/Number of total cells Statistics
(§8) Data analysis was performed calculating the percentage of cell viability normalized vs. the values of negative control, which was considered equal to 100%. The dose/response curve was fitted through the sigmoidal equation dose-response (variable slope) and the EC50 values were calculated as follow: Y=Bottom+(Top−Bottom)/(1+10^{[(Log EC50−X)*HillSlope]}, where: X is compound concentration (log scale) and Y is the response

For experiment [5], the system named is RG6, epithelial (glioblastoma, GMB). The format is cell-based, human.
Description: as §1, §2, §3, §4, §5, §6, §7, §8

The subject of experiment [6] is 12O15, epithelial (glioblastoma, GMB). The format is cell-based, human.
Description: as §1, §2, §3, §4, §5, §6, §7, §8

The subject of experiment [7] is RG4, epithelial (glioblastoma, GMB). It counts as cell-based, human.
Description: as §1, §2, §3, §4, §5, §6, §7, §8

Experiment [8] deals with RG5, epithelial (glioblastoma, GMB). It counts as cell-based, human.
Description: as §1, §2, §3, §4, §5, §6, §7, §8

Experiment [9] has as its system 12O89, epithelial (glioblastoma, GMB). The format is cell-based, human.
Description: as §1, §2, §3, §4, §5, §6, §7, §8

Experiment [10] relates to tumor cell lines. Briefly: Anti-cancer activity in tumor cell lines (summary statements). The format is cell-based. Here is the method: NCI-H524 were seeded at a density of 2500 cells/well in 96 well plates; […]6, 12015, 12089 and GBM-27 were dissociated with Accumax and plate on p96 wells covered with Matrigel. After 24 h, the compounds to be tested were added to calculate the dose/response curve at the starting concentration of 100 μM with serial dilutions (1:1). Controls are the untreated cells. Each experiment was performed in triplicate. Cells were incubated during 72-96 h in incubator under CO2 atmosphere at 37° C. Cell viability was measured by means of Alamar Blue® (Biosource DAL1100) and […], after treatment with Propidium iodide and Hoechst (GE Healthcare), following manufacturer instructions. Data analysis was performed calculating the percentage of cell viability normalized vs. the values of negative control, which was considered equal to 100%. The dose/response curve was fitted through the sigmoidal equation dose-response (variable slope) and the EC50 values were calculated as follow: Y=Bottom+(Top-Bottom)/(1+10^{[(Log EC50-X)*HillSlope]}, where: X is compound concentration (log scale) and Y is the response

Read-outs that look alike come from different tables or passages of the source. *1 amine or outer side, *2 acyl side, *3 side chain or, on linkers, in order; H or OH if unused. Where a SMILES comes first, the peptide text is derived from it. Bridges are numbered along the chain shown (N, C = ends). Where no end group is shown, it is not given here. [ ]: non-standard residue; d: D form. ξ: configuration not given here. ξαMeNle(6-ylidene) = CC(CCCC=[*:3])(N[*:1])C(=O)[*:2]; X1 = CC(CCCCCCC=[*:3])(N[*:1])C(=O)[*:2]

Regarding `CC(C)C[C@H](NC(=O)[C@H](Cc1ccccc1)NC(=O)C1(C)CCCC=CCCCC(C)(NC(=O)[C@H](CC(N)=O)NC(=O)[C@H](CCCNC(=N)N)NC(=O)[C@H](CCCNC(=N)N)NC(=O)[C@H](CCC(N)=O)NC(=O)[C@@H](N)CCCNC(=N)N)C(=O)N[C@@H](CC(C)C)C(=O)N[C@@H](CCCNC(=N)N)C(=O)N[C@@H](CO)C(=O)N1)C(=O)N[C@H](C(=O)N[C@@H](CC(C)C)C(=O)N[C@@H](CCCNC(=N)N)C(=O)N[C@@H](CC(=O)O)C(=O)N[C@@H](Cc1c[nH]cn1)C(N)=O)[C@@H](C)O` (stereo partly shown) [IDP-NS02] (H-RQRRN[ξαMeNle(6-ylidene)]LRS[ξαMeNle(6-ylidene)]FLTLRDH-NH2; staple 6-10; N-terminus and C-terminus assumed), the EC50 in [1] was above 100 µM; in experiment [2], above 100 µM; in experiment [3], around 5 µM.
For `CC[C@H](C)[C@@H]1NC(=O)[C@H](C(C)C)NC(=O)[C@H](C(C)C)NC(=O)C(C)(NC(=O)[C@H](C)NC(=O)[C@H](C)N)CCCCCCC=CCCCC(C)(C(=O)N[C@H](C(=O)N[C@@H](CCC(=O)O)C(=O)N[C@@H](Cc2ccc(O)cc2)C(=O)N[C@H](C(=O)N[C@@H](Cc2c[nH]cn2)C(=O)N[C@@H](CO)C(N)=O)C(C)C)[C@@H](C)O)NC(=O)[C@H](CCCCN)NC(=O)[C@H](CCCCN)NC(=O)[C@H](CC(C)C)NC1=O` (stereo partly shown) [IDP-NS10] (H-AA[X1]VVILKK[ξαMeNle(6-ylidene)]TEYVHS-NH2; staple 3-10; N-terminus and C-terminus assumed), the concentration giving a half-maximal response (EC50) in [1] is around 7 µM; in experiment [2], around 50 µM; in experiment [4], around 7.5 µM; in [5], around 5 µM; in experiment [6] it was around 10 µM; in experiment [7], around 5 µM. The half-maximal effective concentration (EC50) in experiment [8] was around 7 µM; in experiment [9], around 4 µM.
For the compound `CC(C)C[C@@H]1NC(=O)[C@H](Cc2ccccc2)NC(=O)[C@H](CO)NC(=O)[C@H](CO)NC(=O)C(C)(NC(=O)[C@H](CC(C)C)NC(=O)[C@H](CC(=O)O)NC(=O)[C@H](CC(N)=O)NC(=O)[C@H](CCCNC(=N)N)NC(=O)[C@H](CCCNC(=N)N)NC(=O)[C@H](CCC(N)=O)NC(=O)[C@@H](N)CCCNC(=N)N)CCCCCCC=CCCCC(C)(C(=O)N[C@@H](CC(=O)O)C(=O)N[C@@H](Cc2c[nH]cn2)C(N)=O)NC(=O)[C@H](CC(C)C)NC(=O)[C@H]([C@@H](C)O)NC1=O` (stereo partly shown) [IDP-NS16] (H-RQRRNDL[X1]SSFLTL[ξαMeNle(6-ylidene)]DH-NH2; staple 8-15; N-terminus and C-terminus assumed), the EC50 is around 15 µM in [1] and around 10 µM in experiment [2].
For `CC(C)C[C@H](NC(=O)[C@H](CC(=O)O)NC(=O)[C@H](CC(N)=O)NC(=O)[C@H](CCCNC(=N)N)NC(=O)[C@@H](N)CCCNC(=N)N)C(=O)N[C@@H](CCCNC(=N)N)C(=O)N[C@@H](CO)C(=O)NC1(C)CCCCCCC=CCCCC(C)(C(=O)N[C@H](C(=O)N2CCC[C@H]2C(N)=O)C(C)C)NC(=O)[C@H](CC(=O)O)NC(=O)[C@H](CCCNC(=N)N)NC(=O)[C@H](CC(C)C)NC(=O)[C@H]([C@@H](C)O)NC(=O)[C@H](CC(C)C)NC(=O)[C@H](Cc2ccccc2)NC1=O` (stereo partly shown) [Na05] (H-RRNDLRS[X1]FLTLRD[ξαMeNle(6-ylidene)]VP-NH2; staple 8-15; N-terminus and C-terminus assumed), the concentration giving a half-maximal response (EC50) in experiment [1] was around 10 µM.
For “AAKVVILKKATEYVHS-NH2 (C-terminus assumed) [IDP-wtLN10, reference compound]”, the concentration giving a half-maximal response (EC50) in [1] and in experiment [2] was above 100 µM each time. The “inhibiting cancer cell proliferation (in words)” value in [10] was “not effective”.
Take “RQIKIWFQNRRMKWKKRQRRNDLRSSFLTLRDHVP-NH2 [NLCa02]”: the concentration for a half-maximal effect (EC50) in [1] (RG1 cell line, 72-96 h incubation) is around 5 µM. In addition, the “anti-cancer activity (in words)” value in experiment [10] (tumor cell lines) was “anti-cancer activity”.
Turning to “RRRRRRRAAKVVILKKATEYVHS-NH2 (C-terminus assumed) [IDP-intwtLN10, reference compound]”, the EC50 in experiment [1] and in experiment [2] was above 100 µM in each case. For the same compound, in experiment [10], the “inhibiting cancer cell proliferation (in words)” value was “inactive”.
